This passage reports Ki results from ChEMBL document CHEMBL1122556, “Design, synthesis, and binding characteristics of an opiate receptor mimetic peptide” (J Med Chem, 1984).

Residues, ends and D or L forms follow the SMILES beside them. *: point of attachment. Desaminotyrosyl = O=C(CCc1ccc(O)cc1)*; Hydrocinnamoyl = O=C(CCc1ccccc1)*

The assay is described as follows: Compound was evaluated for the binding strength to receptor Mimetic peptide (RMP) at 5 degree celsius, Ki was determined from its potency in displacing [Leu]-enkephalin binding.

As to `CSCC[C@H](NC(=O)[C@H](Cc1ccccc1)NC(=O)CNC(=O)CNC(=O)[C@@H](N)Cc1ccc(O)cc1)C(=O)O`, the Ki – broadly, a dissociation constant, usually derived from enzyme kinetics or from competition with a known ligand – stood at 49.5 µM. In turn, `CC(C)C[C@H](NC(=O)[C@H](Cc1ccccc1)NC(=O)CNC(=O)CNC(=O)[C@H](N)Cc1ccccc1)C(=O)O` yielded an inhibitory constant (Ki) of 95.5 µM. This Ki is about 1.9-fold higher than that of the compound before. In turn, `CC(C)C[C@@H](NC(=O)[C@@H](Cc1ccccc1)NC(=O)CNC(=O)CNC(=O)[C@H](N)Cc1ccc(O)cc1)C(=O)O` showed a Ki of 400 µM. For `CC(C)C[C@H](NC(=O)[C@H](Cc1ccccc1)NC(=O)CNC(=O)[C@@H](N)Cc1ccc(O)cc1)C(=O)O`, the Ki came to 160 µM. This Ki is about 2.5-fold lower than that of the compound before.

Compound `N=C(N)NCCC[C@H](NC(=O)[C@H](Cc1ccccc1)NC(=O)[C@@H](N)Cc1cnc[nH]1)C(=O)N[C@@H](Cc1c[nH]c2ccccc12)C(=O)O` registered a Ki of 5950 µM. This Ki lies about 37-fold higher than the previous one. Take `CC(C)C[C@H](NC(=O)[C@H](Cc1ccccc1)NC(=O)CNC(=O)CNC(=O)CCc1ccc(O)cc1)C(=O)O` (Desaminotyrosyl-GGFL-OH): the Ki was found to be 205 µM.

On to `CC(C)C[C@H](NC(=O)[C@H](Cc1ccccc1)NC(=O)CNC(=O)CNC(=O)CCc1ccccc1)C(=O)O` (Hydrocinnamoyl-GGFL-OH), for which the Ki was determined as 620 µM. Regarding `C=CCN1CC[C@]23c4c5ccc(O)c4O[C@H]2C(=O)CC[C@@]3(O)[C@H]1C5` [NALOXONE], the Ki was 7460 µM. Compared with the last compound, the Ki is about 12-fold higher.
